We go through 34 compounds from patent US12653809B2, “Urea, amide, and substituted heteroaryl compounds for CBL-B inhibition” (Nurix Therapeutics, Inc., priority 2019, dated 2026).

Each structure is given as a SMILES string.

The test deals with T1, Cbl-b (truncated variant, UniProt number Q13191) (Homo sapiens, UniProt Q13191).
T1 construct: made in house
T1 sequence (Q13191 36-427): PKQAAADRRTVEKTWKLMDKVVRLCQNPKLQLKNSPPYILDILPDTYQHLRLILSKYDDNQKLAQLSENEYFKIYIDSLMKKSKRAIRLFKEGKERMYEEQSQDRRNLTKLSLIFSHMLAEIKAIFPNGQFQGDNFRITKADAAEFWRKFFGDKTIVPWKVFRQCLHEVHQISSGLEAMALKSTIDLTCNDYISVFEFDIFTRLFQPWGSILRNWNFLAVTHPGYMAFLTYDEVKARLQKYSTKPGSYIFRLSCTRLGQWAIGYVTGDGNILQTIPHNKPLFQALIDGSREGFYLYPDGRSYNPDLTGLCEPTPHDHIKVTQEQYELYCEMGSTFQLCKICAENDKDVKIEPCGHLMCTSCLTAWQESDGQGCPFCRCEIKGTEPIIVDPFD
In words: Cbl-b activity assay (TR-FRET, interaction of Cbl-b with UbcH5B-Ub). Format: biochemical. To be noted: high conditions: 100 mM NaCl, 60 nM Src kinase; 12 nM Cbl-b; read-out: Cbl-b activity IC50.
With `C[C@H](Sc1nncn1C)c1cccc(NC(=O)NC2CCCN(c3cccnn3)C2)c1` (stereo partly drawn) [Example 129, 1-(3-((S)-1-((4-methyl-4H-1,2,4-triazol-3-yl)thio)ethyl)phenyl)-3-(1-(pyridazin-3-yl)piperidin-3-yl)urea], the IC50 is no less than 5 µM.
On to `C[C@H](Sc1nncn1C)c1cccc(NC(=O)N2CCC23CCOC3)c1` (stereo partly drawn) [Example 130, N-(3-((S)-1-((4-methyl-4H-1,2,4-triazol-3-yl)thio)ethyl)phenyl)-6-oxa-1-azaspiro[3.4]octane-1-carboxamide], for which the IC50 is no less than 5 µM.
To `C[C@H](Sc1nncn1C)c1cccc(NC(=O)N2CCOC(CC(F)(F)F)C2)c1` (stereo partly drawn) [Example 131, N-(3-((S)-1-((4-methyl-4H-1,2,4-triazol-3-yl)thio)ethyl)phenyl)-2-(2,2,2-trifluoroethyl)morpholine-4-carboxamide] belongs no less than 5 µM.
For `C[C@H](Sc1nncn1C)c1cccc(NC(=O)N2CC(C)(F)C2)c1` [Example 132, 3-fluoro-3-methyl-N-[3-[(1S)-1-[(4-methyl-4H-1,2,4-triazol-3-yl)sulfanyl]ethyl]phenyl]azetidine-1-carboxamide] the value was no less than 5 µM; for `C[C@H](Sc1nncn1C)c1cccc(NC(=O)N2CC3(CCC3O)C2)c1` (stereo partly drawn) [Example 133, 5-hydroxy-N-(3-((S)-1-((4-methyl-4H-1,2,4-triazol-3-yl)thio)ethyl)phenyl)-2-azaspiro[3.3]heptane-2-carboxamide], no less than 5 µM; for `C[C@H](Sc1nncn1C)c1cccc(NC(=O)N2CC(S(C)(=O)=O)C2)c1` [Example 134, 3-methanesulfonyl-N-[3-[(1S)-1-[(4-methyl-4H-1,2,4-triazol-3-yl)sulfanyl]ethyl]phenyl]azetidine-1-carboxamide], no less than 5 µM.
For `C[C@H](Sc1nncn1C)c1cccc(NC(=O)N2CCO[C@H]([C@H]3CCCO3)C2)c1` [Example 135, (S)—N-(3-((S)-1-((4-methyl-4H-1,2,4-triazol-3-yl)thio)ethyl)phenyl)-2-((R)-tetrahydrofuran-2-yl)morpholine-4-carboxamide] the value was no less than 5 µM; for `C[C@H](Sc1nncn1C)c1cccc(NC(=O)N2CCO[C@@H]([C@H]3CCCO3)C2)c1` [Example 136, (R)—N-(3-((S)-1-((4-methyl-4H-1,2,4-triazol-3-yl)thio)ethyl)phenyl)-2-((R)-tetrahydrofuran-2-yl)morpholine-4-carboxamide], no less than 5 µM; for `CCN1CCc2nc(NC(=O)Nc3cccc([C@H](C)Sc4nncn4C)c3)sc2C1` [Example 137, (S)-1-(5-ethyl-4,5,6,7-tetrahydrothiazolo[5,4-c]pyridin-2-yl)-3-(3-(1-((4-methyl-4H-1,2,4-triazol-3-yl)thio)ethyl)phenyl)urea], no less than 5 µM.
With `C[C@H](Sc1nncn1C)c1cccc(NC(=O)N2CC3(CCCO3)C2)c1` [Example 138, N-[3-[(1S)-1-[(4-methyl-4H-1,2,4-triazol-3-yl)sulfanyl]ethyl]phenyl]-5-oxa-2-azaspiro[3.4]octane-2-carboxamide], the IC50 is no less than 5 µM.
Take `C[C@H](Sc1nncn1C)c1cccc(NC(=O)N2CCC3(CNC(=O)C3)C2)c1` (stereo partly drawn) [Example 139, N-(3-((S)-1-((4-methyl-4H-1,2,4-triazol-3-yl)thio)ethyl)phenyl)-8-oxo-2,7-diazaspiro[4.4]nonane-2-carboxamide]: the IC50 was no less than 5 µM.
To `C[C@H](Sc1nncn1C)c1cccc(NC(=O)N2CC(C(=O)N3CCC(O)CC3)C2)c1` [Example 140, (S)-3-(4-hydroxypiperidine-1-carbonyl)-N-(3-(1-((4-methyl-4H-1,2,4-triazol-3-yl)thio)ethyl)phenyl)azetidine-1-carboxamide] belongs no less than 5 µM.
Regarding `C[C@H](Sc1nncn1C)c1cccc(NC(=O)N2CC3(CCOC(=O)N3)C2)c1` [Example 141, (S)—N-(3-(1-((4-methyl-4H-1,2,4-triazol-3-yl)thio)ethyl)phenyl)-6-oxo-7-oxa-2,5-diazaspiro[3.5]nonane-2-carboxamide], the half-maximal inhibitory concentration (IC50) was no less than 5 µM.
Turning to `C[C@H](Sc1nncn1C)c1cccc(NC(=O)N2CCC2c2ccccc2)c1` (stereo partly drawn) [Example 142, N-(3-((S)-1-((4-methyl-4H-1,2,4-triazol-3-yl)thio)ethyl)phenyl)-2-phenylazetidine-1-carboxamide], the IC50 is no less than 5 µM.
To `CC(CO)N(C)C(=O)Nc1cccc([C@H](C)Sc2nncn2C)c1` (stereo partly drawn) [Example 143, 1-(1-hydroxypropan-2-yl)-1-methyl-3-(3-((S)-1-((4-methyl-4H-1,2,4-triazol-3-yl)thio)ethyl)phenyl)urea] belongs no less than 5 µM; to `CNS(=O)(=O)c1cc(NC(=O)Nc2cccc([C@H](C)Sc3nncn3C)c2)ccc1C` [Example 144, (S)—N,2-dimethyl-5-(3-(3-(1-((4-methyl-4H-1,2,4-triazol-3-yl)thio)ethyl)phenyl)ureido)benzenesulfonamide], no less than 5 µM; to `C[C@H](Sc1nncn1C)c1cccc(NC(=O)N2Cc3nccnc3C2)c1` [Example 145, (S)—N-(3-(1-((4-methyl-4H-1,2,4-triazol-3-yl)thio)ethyl)phenyl)-5,7-dihydro-6H-pyrrolo[3,4-b]pyrazine-6-carboxamide], no less than 5 µM.
For `C[C@H](Sc1nncn1C)c1cccc(NC(=O)N2CCOCC2CO)c1` (stereo partly drawn) [Example 146, 3-(hydroxymethyl)-N-(3-((S)-1-((4-methyl-4H-1,2,4-triazol-3-yl)thio)ethyl)phenyl)morpholine-4-carboxamide], the IC50 was no less than 5 µM.
Consider `C[C@H](Sc1nncn1C)c1cccc(NC(=O)Nc2ccc(N3CCOCC3=O)cc2)c1` [Example 147, (S)-1-(3-(1-(4-methyl-4H-1,2,4-triazol-3-ylthio)ethyl)phenyl)-3-(4-(3-oxomorpholino)phenyl)urea], for which the IC50 was no less than 5 µM.
Regarding `COc1cc(N2CCOCC2)ccc1NC(=O)Nc1cccc([C@H](C)Sc2nncn2C)c1` [Example 148, (S)-1-(2-methoxy-4-morpholinophenyl)-3-(3-(1-((4-methyl-4H-1,2,4-triazol-3-yl)thio)ethyl)phenyl)urea], the IC50 was no less than 5 µM.
To `C[C@H](Sc1nncn1C)c1cccc(NC(=O)N2CCN(c3cccnc3)CC2)c1` [Example 149, (S)—N-(3-(1-((4-methyl-4H-1,2,4-triazol-3-yl)thio)ethyl)phenyl)-4-(pyridin-3-yl)piperazine-1-carboxamide] belongs no less than 5 µM; to `C[C@H](Sc1nncn1C)c1cccc(NC(=O)Nc2ccc(CC(=O)N(C)C)cc2)c1` [Example 150, (S)—N,N-dimethyl-2-(4-(3-(3-(1-((4-methyl-4H-1,2,4-triazol-3-yl)thio)ethyl)phenyl)ureido)phenyl)acetamide], no less than 5 µM; to `C[C@H](Sc1nncn1C)c1cccc(NC(=O)N2CCCC2)c1` [Example 151, N-[3-[(1S)-1-[(4-methyl-4H-1,2,4-triazol-3-yl)sulfanyl]ethyl]phenyl]pyrrolidine-1-carboxamide], no less than 5 µM.
As to `CCn1cc(CN(C)C(=O)Nc2cccc([C@H](C)Sc3nncn3C)c2)cn1` [Example 152, (S)-1-((1-ethyl-1H-pyrazol-4-yl)methyl)-1-methyl-3-(3-(1-((4-methyl-4H-1,2,4-triazol-3-yl)thio)ethyl)phenyl)urea], the IC50 was no less than 5 µM.
Consider `C[C@H](Sc1nncn1C)c1cccc(NC(=O)N2CC(C(=O)N3CCC(O)C3)C2)c1` (stereo partly drawn) [Example 153, 3-(3-hydroxypyrrolidine-1-carbonyl)-N-(3-((S)-1-((4-methyl-4H-1,2,4-triazol-3-yl)thio)ethyl)phenyl)azetidine-1-carboxamide], for which the IC50 was no less than 5 µM.
To `C[C@H](Sc1nncn1C)c1cccc(NC(=O)N2CCOC(c3ncon3)C2)c1` (stereo partly drawn) [Example 154, N-(3-((S)-1-((4-methyl-4H-1,2,4-triazol-3-yl)thio)ethyl)phenyl)-2-(1,2,4-oxadiazol-3-yl)morpholine-4-carboxamide] belongs no less than 5 µM; to `C[C@H](Sc1nncn1C)c1cccc(NC(=O)N2CCN(C)CC2)c1` [Example 155, (S)-4-methyl-N-(3-(1-((4-methyl-4H-1,2,4-triazol-3-yl)thio)ethyl)phenyl)piperazine-1-carboxamide], no less than 5 µM.
For `C[C@H](Sc1nncn1C)c1cccc(NC(=O)N2CCN(C3CC3)C(=O)C2)c1` [Example 156, (S)-4-cyclopropyl-N-(3-(1-((4-methyl-4H-1,2,4-triazol-3-yl)thio)ethyl)phenyl)-3-oxopiperazine-1-carboxamide] the value was no less than 5 µM; for `C[C@H](Sc1nncn1C)c1cccc(NC(=O)N2CCC(c3ccccn3)C2)c1` (stereo partly drawn) [Example 157, N-(3-((S)-1-((4-methyl-4H-1,2,4-triazol-3-yl)thio)ethyl)phenyl)-3-(pyridin-2-yl)pyrrolidine-1-carboxamide], no less than 5 µM; for `C[C@H](Sc1nncn1C)c1cccc(NC(=O)Nc2ccc(S(=O)(=O)N(C)C)cc2)c1` [Example 158, (S)—N,N-dimethyl-4-(3-(3-(1-((4-methyl-4H-1,2,4-triazol-3-yl)thio)ethyl)phenyl)ureido)benzenesulfonamide], no less than 5 µM.
For `C[C@H](Sc1nncn1C)c1cccc(NC(=O)NC2CCCN(C)C2)c1` (stereo partly drawn) [Example 159, 1-(3-((S)-1-((4-methyl-4H-1,2,4-triazol-3-yl)thio)ethyl)phenyl)-3-(1-methylpiperidin-3-yl)urea] the value was no less than 5 µM.
For the compound `CC(=O)N1CCC2(CCN(C(=O)Nc3cccc([C@H](C)Sc4nncn4C)c3)CC2)C1` [Example 160, (S)-2-acetyl-N-(3-(1-((4-methyl-4H-1,2,4-triazol-3-yl)thio)ethyl)phenyl)-2,8-diazaspiro[4.5]decane-8-carboxamide], the IC50 was no less than 5 µM.
For the compound `C[C@H](Sc1nncn1C)c1cccc(NC(=O)NC2CCCCC2)c1` [Example 161, (S)-1-cyclohexyl-3-(3-(1-((4-methyl-4H-1,2,4-triazol-3-yl)thio)ethyl)phenyl)urea], the IC50 was no less than 5 µM.
For `CC(=O)N1CCN(C(=O)Nc2cccc([C@H](C)Sc3nncn3C)c2)CC1` [Example 162, (S)-4-acetyl-N-(3-(1-(4-methyl-4H-1,2,4-triazol-3-ylthio)ethyl)phenyl)piperazine-1-carboxamide] the value was no less than 5 µM.
